{"source": "patent US12545653B2", "about": "“Compound as PPAR agonist and application thereof” (USA Elixiria Biotech Inc., priority 2019, dated 2026)", "key": {"db−/db− mice": {"tested_on": "db−/db− mice", "experiment": "Diabetic peripheral neuropathy model, Von Frey threshold, sciatic nerve ROS and MDA", "type": "in vivo, mouse", "conditions": "in food 10 mg/kg body weight/day (pregabalin 30 mg/kg body weight/day); for level of MDA in the sciatic nerve after 10 week treatment / level of mitochondrial ROS in the sciatic nerve after 10 week treatment: compared with healthy control group; for mechanical pain threshold after 10 week treatment: compared with normal control group", "protocol": "Male 5-6 week-old male db^−/db^− mice were used in the experiment, and their normoglycemic heterozygous littermates were used as controls. db^−/db^− is a commonly used type 2 diabetes animal model. The compounds was dissolved in DMSO and mixed into food pellets. The animals were given ad libitum access to the pellets, beginning from 8 to 9 weeks of age for 10 weeks. […] The method for detecting mice hindlimb hypersensitivity is performed using Von Frey filaments. […] The difference is significant with P<0.05. The increase of mitochondrial reactive oxygen species (ROS) in the sciatic nerve of mice, which in turn leads to the increase of intracellular malondialdehyde (MDA), is the etiology of this type of neuropathic pain. The efficacy of compound to treat the root cause of the disease was evaluated by measurement of the levels of MDA and mitochondrial ROS from the sciatic nerves."}, "klotho gene": {"tested_on": "klotho gene", "experiment": "In vivo brain transcriptional activity of klotho gene (RT-PCR of brain mRNA)", "parameters": "species or system mouse", "conditions": "10 mg/kg body weight/day tail vein; for mRNA level of klotho gene in the brain of the mouse relative to vehicle control group: after 10 days of continuous injection; for fold induction at 10 mg/kg: Mus musculus, iv, 720 h, after 30 days of continuous injection, read-out: mRNA level of klotho gene in the brain of the mouse relative to vehicle control group", "protocol": "To verify this hypothesis, adult male Kunming mice were used in the experiments. […] The injection volume is 8 ml/kg body weight. Dimethyl sulfoxide (DMSO) was used as a vehicle control of the compounds. […] The RNA was then reverse-transcribed to the cDNA, and quantified by SYBR Green fluorescence quantitative PCR kit (HaiGene) and a quantitative PCR system (Bio-Rad Min-Opticon Type 2) were used for real-time fluorescent quantitative polymerase chain reaction (RT-PCR). The mouse gene primers were design as follows: • KLOTHO-forward 5′-[…]-3′; • LOTHO-reverse 5′-[…]-3′; • GAPDH-forward 5′-[…]-3′; • GAPDH-reverse 5′-[…]-3′.\nData analysis was performed using the 2^−ΔΔct method. Semi-quantitative values of gene expression were then normalized by the control mean."}, "APP/PS1 transgenic mice": {"tested_on": "APP/PS1 transgenic mice", "experiment": "Alzheimer's disease model, eight-arm radial water maze and brain gene expression", "type": "in vivo, mouse", "conditions": "for number of errors in water maze on the third day: 5 on the first day"}, "[1]": {"conditions": "30 days in food, 10 mg/kg body weight/day (donepezil 3 mg/kg body weight/day)"}, "[2]": {"conditions": "10 mg/kg body weight/day, 30 days, RT-PCR"}}, "data": [{"compound": "CCc1ccc(OC/C=C/c2ccc3c(c2)C(=O)CC3)cc1", "note": "[ELB001115, (E)-6-(3-(4-ethylphenoxy)prop-1-en-1-yl)-2,3-dihydro-1H-inden-1-one]", "values": [{"measurement": "level of MDA in the sciatic nerve after 10 week treatment", "setting": "db−/db− mice", "result": "reduced"}, {"measurement": "level of mitochondrial ROS in the sciatic nerve after 10 week treatment", "setting": "db−/db− mice", "result": "reduced"}, {"measurement": "mechanical pain threshold after 10 week treatment", "setting": "db−/db− mice", "result": "significantly improved"}, {"measurement": "mRNA level of klotho gene in the brain of the mouse relative to vehicle control group", "setting": "klotho gene", "result": "more than twice"}, {"measurement": "fold induction at 10 mg/kg", "setting": "klotho gene", "result": "> 5"}, {"measurement": "number of errors in water maze on the third day", "setting": "APP/PS1 transgenic mice; [1]", "result": "comparable to that of ELB00824"}]}, {"compound": "CCc1ccc(CC/C=C/c2ccc3c(c2)OCCC3=O)cc1", "note": "[ELB001045, (E)-7-(4-(4-ethylphenyl)but-1-en-1-yl)chroman-4-one]", "values": [{"measurement": "level of MDA in the sciatic nerve after 10 week treatment", "setting": "db−/db− mice", "result": "reduced"}, {"measurement": "level of mitochondrial ROS in the sciatic nerve after 10 week treatment", "setting": "db−/db− mice", "result": "reduced"}, {"measurement": "mechanical pain threshold after 10 week treatment", "setting": "db−/db− mice", "result": "significantly improved"}, {"measurement": "mRNA level of klotho gene in the brain of the mouse relative to vehicle control group", "setting": "klotho gene", "result": "more than twice"}, {"measurement": "fold induction at 10 mg/kg", "setting": "klotho gene", "result": "> 5"}, {"measurement": "number of errors in water maze on the third day", "setting": "APP/PS1 transgenic mice; [1]", "result": "comparable to that of ELB00824"}]}, {"compound": "COc1ccc(CC/C=C/c2ccc3c(c2)C(=O)CC3)cc1", "note": "[ELB001116, (E)-6-(4-(4-methoxyphenyl)but-1-en-1-yl)-2,3-dihydro-1H-inden-1-one]", "values": [{"measurement": "level of MDA in the sciatic nerve after 10 week treatment", "setting": "db−/db− mice", "result": "no difference"}, {"measurement": "level of mitochondrial ROS in the sciatic nerve after 10 week treatment", "setting": "db−/db− mice", "result": "no difference"}, {"measurement": "mechanical pain threshold after 10 week treatment", "setting": "db−/db− mice", "result": "no difference"}, {"measurement": "mRNA level of klotho gene in the brain of the mouse relative to vehicle control group", "setting": "klotho gene", "result": "more than twice"}, {"measurement": "fold induction at 10 mg/kg", "setting": "klotho gene", "result": "> 5"}, {"measurement": "number of errors in water maze on the third day", "setting": "APP/PS1 transgenic mice; [1]", "result": "comparable to that of ELB00824"}]}, {"compound": "CCc1ccc(CC/C=C/c2ccc3c(c2)C(=O)CC3)cc1", "note": "[ELB00824, (E)-6-(4-(4-ethylphenyl)but-1-en-1-yl)-2,3-dihydro-1H-inden-1-one]", "values": [{"measurement": "level of MDA in the sciatic nerve after 10 week treatment", "setting": "db−/db− mice", "result": "no difference"}, {"measurement": "level of mitochondrial ROS in the sciatic nerve after 10 week treatment", "setting": "db−/db− mice", "result": "no difference"}, {"measurement": "mechanical pain threshold after 10 week treatment", "setting": "db−/db− mice", "result": "no difference"}, {"measurement": "mRNA level of klotho gene in the brain of the mouse relative to vehicle control group", "setting": "klotho gene", "result": "more than twice"}, {"measurement": "fold induction at 10 mg/kg", "setting": "klotho gene", "result": "> 5"}, {"measurement": "expression level of Bcl-xl gene in cerebral cortex and hippocampus compared with disease control group", "setting": "APP/PS1 transgenic mice; [2]", "result": "doubled"}, {"measurement": "expression level of GluN2B gene in cerebral cortex and hippocampus compared with disease control group", "setting": "APP/PS1 transgenic mice; [2]", "result": "doubled"}, {"measurement": "expression level of Gng11 gene in cerebral cortex and hippocampus compared with disease control group", "setting": "APP/PS1 transgenic mice; [2]", "result": "tripled"}, {"measurement": "expression level of MnSOD gene in cerebral cortex and hippocampus compared with disease control group", "setting": "APP/PS1 transgenic mice; [2]", "result": "tripled or quadrupled"}, {"measurement": "expression level of Prx-2 gene in cerebral cortex and hippocampus compared with disease control group", "setting": "APP/PS1 transgenic mice; [2]", "result": "tripled or quadrupled"}, {"measurement": "expression level of klotho gene in cerebral cortex and hippocampus compared with disease control group", "setting": "APP/PS1 transgenic mice; [2]", "result": 9, "unit": "folds"}, {"measurement": "number of errors in water maze on the third day", "setting": "APP/PS1 transgenic mice; [1]", "result": "~1"}, {"measurement": "reduction in the number of errors (reference memory), third day compared with first day", "setting": "APP/PS1 transgenic mice; 30 days in food, 10 mg/kg body weight/day (donepezil 3 mg/kg body weight/day), eight-arm water maze", "result": "significant"}]}, {"compound": "CCc1ccc(CC/C=C/c2ccc3c(c2)C(=O)COC3)cc1", "note": "[ELB001046, (E)-6-(4-(4-ethylphenyl)but-1-en-1-yl)isochroman-4-one]", "values": [{"measurement": "level of MDA in the sciatic nerve after 10 week treatment", "setting": "db−/db− mice", "result": "reduced"}, {"measurement": "level of mitochondrial ROS in the sciatic nerve after 10 week treatment", "setting": "db−/db− mice", "result": "reduced"}, {"measurement": "mechanical pain threshold after 10 week treatment", "setting": "db−/db− mice", "result": "significantly improved"}, {"measurement": "mRNA level of klotho gene in the brain of the mouse relative to vehicle control group", "setting": "klotho gene", "result": "more than twice"}, {"measurement": "fold induction at 10 mg/kg", "setting": "klotho gene", "result": "> 5"}, {"measurement": "number of errors in water maze on the third day", "setting": "APP/PS1 transgenic mice; [1]", "result": "comparable to that of ELB00824"}]}, {"compound": "CCc1ccc(CC/C=C/c2ccc3c(c2)C(=O)CC3)nc1", "note": "[ELB001125, (E)-6-(4-(5-ethylpyridin-2-yl)but-1-en-1-yl)-2,3-dihydro-1H-inden-1-one]", "values": [{"measurement": "level of MDA in the sciatic nerve after 10 week treatment", "setting": "db−/db− mice", "result": "reduced"}, {"measurement": "level of mitochondrial ROS in the sciatic nerve after 10 week treatment", "setting": "db−/db− mice", "result": "reduced"}, {"measurement": "mechanical pain threshold after 10 week treatment", "setting": "db−/db− mice", "result": "significantly improved"}, {"measurement": "mRNA level of klotho gene in the brain of the mouse relative to vehicle control group", "setting": "klotho gene", "result": "more than twice"}, {"measurement": "fold induction at 10 mg/kg", "setting": "klotho gene", "result": "> 5"}, {"measurement": "number of errors in water maze on the third day", "setting": "APP/PS1 transgenic mice; [1]", "result": "comparable to that of ELB00824"}]}]}
